Here are results for ten compounds from patent US20040121965A1, “Method of treating resistant tumors” (Wyeth Holdings Corporation, priority 2002, published 2004).

Read-outs that look alike come from different tables or passages of the source.

Data set [1] concerns KB-3-1. Put plainly: Cell survival assay (SRB), KB-3-1. It is filed as cell-based, human. In short, it runs like this: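 Step 1: add serial compound dilutions to cells in duplicate. Step 2: incubate 3 days. Step 3: fix in 10% TCA for 1 hr at 4 °C, stain with 0.04% SRB for 10 min, wash in 1% acetic acid, solubilise in 10 mM Trizma Base, measure absorbance and derive the 50%-growth-inhibition concentration.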

The test system of data set [2] is KB-8-5 (MDR1+).
Data set [3] concerns KB-V1 (MDR1++).
The test system of data set [4] is KB-8-5 (MDR1+). Description: Cell survival assay (SRB), KB-8-5 (MDR1+). As to conditions: for RR, relative resistance: IC50 KB-8-5 / IC50 KB-3-1, Table 3; for IC50: Homo sapiens.
Data set [5] deals with KB-V1 (MDR1++). Put plainly: Cell survival assay (SRB), KB-V1 (MDR1++). The following applies: for RR, relative resistance: IC50 KB-V1 / IC50 KB-3-1, Table 3; for IC50: Homo sapiens.
The subject of data set [6] is tumor cell lines. Put plainly: cells. It is filed as cell-based. As to conditions: Five micromolar. An excerpt:
(§1) Cells lines with previously known mechanisms of resistance. […] Res. 8: 207-218,1996); KB-3-1 (parental derived from an epidermoid carcinoma), KB-8.5, KB-V1 (Akiyama S-I, Fojo A, Hanover J A, Pastan I, Gottesman M M. Isolation and genetic characterization of human KB cell lines resistant to multiple drugs. Somatic Cell Mol. Gen., 11: 117-126,1985; Shen D-W, Cardarelli C, Hwang J, Cornwell M, Richert N, Ishii S, Pastan I, Gottesman MM. […] J. Biol. Chem., 261: 7762-7770, 1986); and HL-60 (parental derived from human leukemia) and HL60/AR (McGrath T., Center M. S. Adriamycin resistance in HL60 cells in the absence of detectable P-glycoprotein. Biochem. Res. Commun., 145:1171-1176,1987); A549 and A549.EpoB40 (He L., Yang C.-P.H., Horwitz S. B. Mutations in p-tubulin map to domains involved in regulation of microtubule stability in epothilone-resistant cell lines. Molecular Cancer Therapeutics. 1: 3-10, 2001). HCT-15 human colon carcinoma and DLD-1 human colon carcinoma are obtained from American Tissue Culture Collection. The MX-1W carcinoma is a Wyeth variant orginally obtained as MX-1 breast carcinoma from the National Cancer Institute. Cell lines selected for resistance to Representative Example 129. KB-3-1 cells are selected for resistance to Example 129 by chronically exposing cells to increasing concentrations of Example 129.
(§2) 2.2. Cell Survival Assay: Standard Pharmacological Test Procedure. The concentration of candidate inhibitor required to inhibit 50% of cell growth (IC50) is done according to previously reported methods. […] Compounds are serially diluted into media as 2× stocks and 100 μl added to cells in duplicate. Compounds are incubated with cells for 3 days. At the end of the incubation period the sulforhodamine B (SRB) assay, which measures protein content as an assessment of cell survival, is performed as described previously (Skehan P, Storeng R, Scudiero D, Monks A, McMahon J, Vistica D, Warren J T, Bokesch H, Kenney S, Boyd MR. New calorimetric cytotoxicity assay for anticancer-drug screening. J Natl Cancer Inst 1990 Jul 4;82(13):1107-12) with some modification as follows. For KB-3-1 cells with 20% FCS, media is gently decanted and replaced with 200 μl of serum-free media mixed with cold 50% TCA for a final concentration of 10% TCA. The plates are incubated for 1 hr at 4° C., followed by washing 5 times in cold distilled water, then air dried overnight. The fixed cells are stained for 10 min with 80 μl of 0.04% SRB solution prepared in 1% glacial acetic acid. Stain is discarded and plates washed 5 times in 1% glacial acetic acid, then air-dried until completely dry. Stained cell product is dissolved in 150 μl of 10 mM Trizma Base and placed on a shaker for 20 minutes until fully dissolved. Absorbance is read on a Victor V multi-label plate reader (Perkin Elmer, Gaithersburg, Md.).

The test system of data set [7] is KB-PTX-15+099. Description: Cell survival assay, KB-PTX-15+099 (paclitaxel-resistant, non-MDR). The following applies: for Average Relative Resistance (RR): IC50 KB-PTX-15+099 / IC50 KB-3-1, less than 1 = increased sensitivity; for IC50: KB-PTX-15+099, Table 6, read-out: KB-PTX-15+099 IC50. It is filed as cell-based, human.
Data set [8] deals with KB-HTI-4.0. Put plainly: Cell survival assay, KB-3-1 line made resistant to Example 129 (KB-HTI-4.0). It is filed as cell-based, human. As to conditions: for IC50: KB-3-1 line made resistant to Example 129, Table 8, read-out: KB-HTI-4.0 IC50; for (RR) relative resistance vs. parental cells: KB-HTI-4.0 vs KB-3-1.
Source text: as §1, §2
Cells are selected for resistance to Example 129 to understand the frequency and mechanistic basis of resistance.

Data set [9] deals with Human Melanoma Carcinoma Lox. The following applies: staged LOX xenograft; at MTD ('<': MTD not achieved); days 11-15. How it is done:
2.4. Growth of Tumors in Nude Mice. […] In these experiments, xenografts are implanted subcutaneously into the flanks of nude mice. […] Relative tumor mass compared to controls are assessed during the 21-day post-staging period.
Groups of 5 female nu/nu mice are injected with 1.5×10^6 KB-3-1 (A) or Lox cells (B). […] Relative tumor growth is determined during the experiment and % T/C calculated. Statistical analyses are Student's t-test of treated time points vs. vehicle (*, P<0.05; **, P<0.01)

Data set [10] deals with MX-1W tumor. Description: Growth of tumors in nude mice, MX-1W xenograft. It is filed as in vivo. An excerpt: 2.4. Growth of Tumors in Nude Mice.
Where [11] appears, read: KB-3-1 cells (paclitaxel-sensitive parent), read-out: In vitro IC50 (nM) KB-3-1.
Where [12] appears, read: Homo sapiens, KB 3-1, 72 h, amount of drug needed to kill 50% of cells after three days continuous exposure, Table 11, read-out: IC50 in parental cell line KB-3-1.

Broadly, the IC50 is the concentration needed to halve the response being measured. Regarding `CN[C@H](C(=O)N[C@@H](CCC(=O)O)C(=O)N(C)[C@H](/C=C(\C)C(=O)O)C(C)C)C(C)(C)c1ccccc1` [Example 139, N,β,β-trimethyl-L-phenylalanyl-N^1-[(1S,2E)-3-carboxy-1-isopropyl-2-butenyl]-N^1-methyl-L-alpha-glutamine], the IC50 is 503 nM in data set [1] (setting [11]), 975 nM in data set [2] and ≥ 3000 nM in data set [3]. For the same compound, in [4], the “Ratio KB85/KB” value was 1.9. In addition, the “Ratio KBV1/KB” value in [5] is listed as 6.0.
In the case of “(2E,4S)-2,5-dimethyl4-(methyl{(2S)-2-[(N,β,1-trimethyl-L-phenylalanyl)amino]butanoyl}amino)hex-2-enoic Acid Trifluoroacetic Acid [Example 99]”, the IC50 came out at 60 nM in data set [1] (setting [11]), 87 nM in data set [2] and 1320 nM in data set [3].
With `CCN(C(=O)[C@@H](NC(=O)[C@@H](NC)C(C)(C)c1ccccc1)C(C)C)[C@H](/C=C(\C)C(=O)O)C(C)C.O=C(O)C(F)(F)F` [Example 95, N,β,β-trimethyl-L-phenylananyl-N^1-[(1S,2E)-3-carboxy-1-isopropylbut-2-enyl]-N^1-ethyl-L-valinamide Trifluoroacetic Acid], the IC50 in data set [1] (setting [11]) was determined as 38.6 nM; in [2], 82 nM; in data set [3], 2550 nM. The “Ratio KB85/KB” value in data set [4] turned out to be 2.1. The “Ratio KBV1/KB” value in [5] is on record as 66.0.
For “(E,4S)-4-[((2S)-3,3-dimethyl-2-{[(2S)-3-methyl-2-(methylamino)-3-(1-methyl-1H-ethyl-1H-indol-3-yl)butanoyl]amino}butanoyl)amino]-2,5-dimethyl-2-hexenoic Acid [Example 132]”, the IC50 was 0.51 nM in data set [1] (setting [11]) and 890 nM in data set [3].
On to “(2E,4S)4-[{(2R)-2-cyclohexyl-2-[(N,β,1-trimethyl-L-phenylalanyl)amino]ethanoyl}(methyl)amino]-2,5-dimethylhex-2-enoic Acid Trifluoroacetic Acid [Example 98]”, for which the IC50 in data set [1] (setting [11]) amounted to 133 nM; in data set [2], 186 nM; in [3] it was 2940 nM.
Take `COc1ccc(C(C#N)(CCCCCN2CCc3cc(OC)c(OC)cc3C2)Sc2ccc(C)cc2)cc1OC` (centres unmarked): the “effect on cell growth when given alone” value in [6] (KB-3-1, KB-85, KB-V1 (Table 4)) was “# has no inhibitory effect on cell growth when given alone. Data are the mean of two experiments”; in data set [6] (MX-1W, DLD-1, HCT-15 (Table 2)), “# Five micromolar 7-(6,7-dimethoxy-3,4-dihydro-1H-isoquinolin-2-yl)-2(3,4-dimethoxy-phenyl)-2-p-tolysulfanyl-heptanenitrile has no inhibitory effect on cell growth when given alone”.
On to `CC[C@H](C)[C@@H]([C@@H](CC(=O)N1CCC[C@H]1[C@H](OC)[C@@H](C)C(=O)N[C@@H](Cc1ccccc1)c1nccs1)OC)N(C)C(=O)[C@@H](NC(=O)[C@H](C(C)C)N(C)C)C(C)C` [dolastatin-10], for which the IC50 amounted to 0.041 ± 0.01 nM in data set [1] (KB-3-1, Table 6, read-out: KB-3-1 IC50); 0.03 ± 0.02 nM in data set [1] (KB-3-1 parental, Table 8, read-out: KB-3-1 IC50); 0.012 ± 0.004 nM in data set [7]; 0.83 ± 0.33 nM in [8]. Further, the “Average Relative Resistance (RR)” value in data set [7] is on record as “(0.30)”. Also, in data set [7] (vs KB-3-1), the “increased sensitivity of KB-PTX-15+099 cells” value worked out at 3.4 fold. In addition, the “(RR) relative resistance vs. parental cells” value in [8] is “(28)”. Further, the entries for the “RR, relative resistance” value in data set [4] and in data set [5] were 7.1 and 573, respectively.
Regarding `CN[C@H](C(=O)N[C@H](C(=O)N(C)[C@H](/C=C(\C)C(=O)O)C(C)C)C(C)(C)C)C(C)(C)c1cccc(C)c1` [Example 8, N,β,β,3-Tetramethyl-L-phenylalanyl-N^1-[(1S,2E)-3-carboxy-1-isopropyl-2-butenyl]-N^1,3-dimethyl-L-valinamide], the IC50 in [1] (setting [12]) turned out to be 0.3 nM; in data set [1] (Homo sapiens, KB 3-1, KB-3-1 cells (paclitaxel-sensitive parent), read-out: In vitro IC50 (nM) KB-3-1), 0.274 nM; in [4] (MDR1, read-out: In vitro IC50 (nM) KB85) it was 0.699 nM; in data set [5] (read-out: In vitro IC50 (nM) KBV1), 18.7 nM. In addition, the “Activity in nude mice animal model (% T/C @ MTD on days 11-15) LOX” value in data set [9] came to 2%. Also, the “effect on growth of MX-1W (paclitaxel-resistant) tumor” value in data set [10] (mouse, in vivo) was “inhibited the growth”. Besides, in data set [10] (staged MX-1W xenograft, at MTD, days 11-15), the “Activity in nude mice animal model (% T/C @ MTD on days 11-15) MX-1W” value was 9%. Moreover, in [4], the “Ratio KB85/KB” value was determined as 2.6. For the same compound, the “Ratio KBV1/KB” value in data set [5] is reported as 68.5.
On to `CC(=O)O[C@@]12CO[C@@H]1C[C@H](O)[C@@]1(C)C(=O)[C@H](O)C3=C(C)[C@@H](OC(=O)[C@H](O)[C@@H](NC(=O)OC(C)(C)C)c4ccccc4)C[C@@](O)([C@@H](OC(=O)c4ccccc4)[C@H]21)C3(C)C` [docetaxel, reference compound], for which the concentration for half-maximal inhibition (IC50) in data set [1] (setting [12]) was 0.6 nM; in [1] (Homo sapiens, KB-3-1, Table 6, read-out: KB-3-1 IC50), 0.594 ± 0.098 nM; in data set [1] (Homo sapiens, KB-3-1 parental, Table 3, read-out: KB-3-1 IC50, nM (N)) it was 0.55 ± 0.45 nM; in data set [1] (Homo sapiens, KB-3-1 parental, Table 8, read-out: KB-3-1 IC50), 0.44 ± 0.2 nM; in [7] (Homo sapiens) it was 4.49 ± 1.91 nM; in data set [8] (Homo sapiens), 1.25 ± 0.76 nM. Besides, the IC50 turned out to be 9.7 ± 6.6 nM in data set [4] (MDR1, read-out: KB-8-5 (MDR1+) IC50, nM (N)) and 368 ± 257 nM in data set [5] (read-out: KB-V1 (MDR1++) IC50, nM (N)). Also, the “Average Relative Resistance (RR)” value in data set [7] is given as “(7.6)”. Also, in data set [7] (vs KB-3-1), the “resistance of KB-PTX-15+099 cells” value stood at 7.6 fold. The “(RR) relative resistance vs. parental cells” value in [8] is on record as “(3)”. Also, the results for the “RR, relative resistance” value in data set [4] and in data set [5] were 18 and 669, respectively. Also, the “resistance of KB-8-5 cells” value in [4] (KB-8-5 (KB-85) vs KB-3-1, in vitro) came to 18 fold.
Take “N,β,β-trimethyl-L-phenylalanyl-N^1-{(1S,2E)-4-[[(1S,2E)-3-carboxy-1-isopropylbut-2-enyl](methyl)amino]-1-isopropyl-3-methyl-4-oxobut-2-enyl-N^1,3-dimethyl-L-valinamide [Example 114]”: the IC50 is 55 nM in data set [1] (setting [11]), 192 nM in data set [2] and > 3000 nM in data set [3]. The “Ratio KB85/KB” value in [4] came to 3.5.
